# In patent publication US8530512B2, “Broad spectrum gram-positive antimicrobials and anthelmintics with efficacy against drug-resistant strains and Mycobacterium species” (priority 2004, dated 2013):
# Where two headings read alike, the source gives them in different places.
# Key:
# Streptococcus pyogenes = test: microbe, parasite or virus in culture; format: cell-based; settings: for MIC: Streptococcus pyogenes, per-compound listing, Example 6, read-out: MIC S. pyogenes; for MIC S. pyogenes, G+: Table 3
# M. smegmatis = test: MIC assay; format: cell-based; settings: Mycolicibacterium smegmatis, read-out: MIC M. smegmatis
# [1] = system: Staphylococcus aureus MRSA MC-1; test: microbe, parasite or virus in culture; format: cell-based; settings: Staphylococcus aureus, MRSA, read-out: MIC MRSA
# [2] = system: Enterococcus faecium VRE 1; test: organism not typed; format: cell-based; settings: for MIC E. faecium VRE 1, G+: Table 3; for MIC: read-out: MIC VRE
# C. elegans = test: motility assay; format: in vivo; design: key to Movement score, 1/1600 / Movement score, 1/800 / Movement score, 1/400 / Movement score, 1/200 / Movement score, 1/100: normal (−); slow (+); very slow (++); not motile/paralyzed (+++); settings: for Movement score, 1/100: dilution 1/100 of stock (10.24 μg/μL; SK-03-92 1.024 μg/μL); for Movement score, 1/100 / Movement score, 1/200 / Movement score, 1/400 / Movement score, 1/800 / Movement score, 1/1600: Ive 1 ng/μL in all wells; for Movement score, 1/200: dilution 1/200 of stock (10.24 μg/μL; SK-03-92 1.024 μg/μL); for Movement score, 1/400: dilution 1/400 of stock (10.24 μg/μL; SK-03-92 1.024 μg/μL); for Movement score, 1/800: dilution 1/800 of stock (10.24 μg/μL; SK-03-92 1.024 μg/μL); for Movement score, 1/1600: dilution 1/1600 of stock (10.24 μg/μL; SK-03-92 1.024 μg/μL), overnight 20° C.; for effect on worms at the lowest concentrations tested: at least triplicate
# Bacillus cereus = test: microbe, parasite or virus in culture; format: cell-based; settings: for MIC: Bacillus cereus, per-compound listing, Example 6, read-out: MIC B. cereus; for MIC B. cereus, G+ (anthrax surrogate): Table 3
# [3] = system: Staphylococcus aureus ATCC 29213; test: microbe, parasite or virus in culture; format: cell-based; settings: Staphylococcus aureus, ATCC29213; per-compound listing, Example 6; read-out: MIC S. aureus
# C. elegans L1 larvae = test: developmental assay; format: in vivo; design: key to Developmental score, 1/1600 / Developmental score, 1/800 / Developmental score, 1/400 / Developmental score, 1/200 / Developmental score, 1/100: dead (+++); distressed (++); slightly delayed (+); the same as M9-only untreated wells (−); settings: for Developmental score, 1/100: dilution 1/100; for Developmental score, 1/100 / Developmental score, 1/200 / Developmental score, 1/400 / Developmental score, 1/800 / Developmental score, 1/1600: after four days, Ive 1 ng/μL in each well; for Developmental score, 1/200: dilution 1/200; for Developmental score, 1/400: dilution 1/400; for Developmental score, 1/800: dilution 1/800; for Developmental score, 1/1600: dilution 1/1600
# [4] = per-compound listing, Example 6
Compound,MIC (Streptococcus pyogenes) [µg/mL],"MIC S. pyogenes, G+ (Streptococcus pyogenes) [µg/mL]",MIC (M. smegmatis; [4]) [µg/mL],MIC [1] [µg/mL],"MIC E. faecium VRE 1, G+ [2] [µg/mL]",MIC [2] [µg/mL],"Movement score, 1/100 (C. elegans)","Movement score, 1/200 (C. elegans)","Movement score, 1/400 (C. elegans)","Movement score, 1/800 (C. elegans)","Movement score, 1/1600 (C. elegans)",MIC (Bacillus cereus) [µg/mL],"MIC B. cereus, G+ (anthrax surrogate) (Bacillus cereus) [µg/mL]",MIC [3] [µg/mL],"Developmental score, 1/100 (C. elegans L1 larvae)","Developmental score, 1/200 (C. elegans L1 larvae)","Developmental score, 1/400 (C. elegans L1 larvae)","Developmental score, 1/800 (C. elegans L1 larvae)","Developmental score, 1/1600 (C. elegans L1 larvae)",further results
"COc1cc(O)cc(/C=C/Oc2ccccc2)c1 [CL-1, Phenyl-E-(3-hydroxy-5-methoxy)-styryl ether]",32,32,128,64,64,64,+++,+++,−,−,−,32,16,32,,,,,,
"COc1cc(O)cc(O/C=C/c2ccccc2)c1 [CL-2, Phenyl-E-(3-hydroxy-5methoxy)-styryl ether]",16,16,128,32,32,32,+++,+++,+++,−,−,64,64,32,,,,,,
"COc1cc(O)cc(/C=C/Sc2ccccc2)c1 [CL-4, Phenyl-E-(3-hydroxy-5methoxy)-styryl thioether]",8,8,128,32,32,32,+++,+++,++,+,−,16,16,16,+++,+++,+++,−,−,
"COc1cc(O)cc(/C=C/c2ccsc2)c1 [CL-5, (E)-3-[2-(3-Hydroxy-5-methoxy)-vinyl]thiophene]",4,4,128,32,32,32,+++,+++,+++,+++,++,32,32,16,+++,+++,+++,+++,+,"effect on worms at the lowest concentration tested (most active) (C. elegans): severe distress; effect on worms at the lowest concentrations tested (C. elegans): reduced motility, paralysis, or death; effect at the two highest dilutions (C. elegans L1 larvae): death or delays in development"
"COc1cc(O)cc(/C=C/c2cccs2)c1 [CL-6, (E)-2-[2-(3-Hydroxy-5-methoxy)-vinyl]thiophene]",32,32,64,32,64,64,+++,+++,+++,−,−,32,32,32,,,,,,
"COc1cc(O)cc(/C=C/Oc2ccccc2C)c1 [Compound A11, 2-Methylphenyl-E-(3-hydroxy-5-methoxy)-styryl ether]",32,32,> 128,32,32,32,,,,,,32,64,16,,,,,,
COc1cc(O)cc(/C=C/c2ccc3ccccc3c2)c1 [SK-03-28F2],,,256,,,,+++,+++,++,++,−,16,,8,+++,+++,−,−,−,"effect on worms at the lowest concentrations tested (C. elegans): reduced motility, paralysis, or death"
Oc1cc(O)cc(/C=C/c2ccc3ccccc3c2)c1 [SK-03-28F3],,,> 512,256,,,,,,,,8,,8,,,,,,
Oc1cc(O)cc(/C=C/c2csc3ccccc23)c1 [SK-03-44F2],,,,> 512,,,,,,,,256,,32,,,,,,MIC (M. smegmatis): > 512 µg/mL
COc1cc(O)cc(/C=C/SC2CCCCC2)c1 [SK-04-50],,,,,,,++,+,+,+,+,,,,+++,+,−,−,−,
CCOC(=O)/C=C\Sc1nc2ccccc2s1 [SK-04-59F1],,,,,,,−,−,−,−,−,,,,,,,,,
COc1cc(O)cc(/C=C/Sc2ccccc2C(C)C)c1 [SK-05-01],,,256,,,,+,−,−,−,−,16,,16,,,,,,
COc1cc(O)cc(/C=C/Sc2ccc(C(C)(C)C)cc2)c1 [SK-05-04],,,128,,,,,,,,,8,,16,,,,,,
COc1cc(O)cc(/C=C/Sc2cccc3ccccc23)c1 [SK-05-16],,,128,,,,++,++,++,+,−,4,,4,++,−,−,−,−,
COc1cc(O)cc(/C=C/Sc2ccc3ccccc3c2)c1 [SK-05-17],,,128,,,,++,++,++,++,++,4,,4,+++,++,++,−,−,"effect on worms at the lowest concentration tested (most active) (C. elegans): severe distress; effect on worms at the lowest concentrations tested (C. elegans): reduced motility, paralysis, or death"
CCC(C)CS/C=C/c1cc(O)cc(OC)c1 (stereo not drawn) [SK-05-22],,,128,,,,+++,+++,++,+,−,16,,16,+++,+++,+++,+,−,effect at the two highest dilutions (C. elegans L1 larvae): death or delays in development
ivermectin [reference compound],,,,,,,+++,+++,+++,+++,+++,,,,+++,+++,+++,++,++,"animals affected (C. elegans; 0.25 ng/μL, overnight): Over 40%; animals paralyzed (C. elegans; 0.5 ng/μL): more than 90%; paralysis (C. elegans; 0.5 ng/μl, FIG. 9): Most worms were paralyzed; paralysis (C. elegans; 1 ng/μL): All worms were paralyzed; lowest effective concentration (C. elegans; molar equivalent of 0.25 ng/μL): ~140 nM; lowest effective concentration (C. elegans; overnight, soaking, mixed population): 0.25 ng/µL"
